Data: patent publication US20250108088A1, “REGENERATIVE PEPTIDES AND METHODS FOR USE THEREOF” (priority 2023, published 2025)

Assays:
HNDF fibroblasts = assay: Fibroblast cell proliferation (EDU); format: cell-based, human; conditions: N = 3; for Fibroblast proliferation, Representative value from experiments (% change relative to control): most effective significant concentration
Description: Fibroblast proliferation is an important component of tissue regeneration. To determine if the peptides of the disclosure affect fibroblast proliferation, HNDFs were grown as described above, and split from 1-10 cm plates to 4-24 well plates. After allowing the cells to grow overnight, normal media was replaced with starvation media (1% FBS in DMEM). 10 ng/ml of fibroblast growth factor (FGF) served as a positive control, untreated cells (starvation media only) served as a negative control, and different concentrations of the peptides as test articles. The cells were then exposed to the peptides for a day before adding 5-Ethynyl-2′-deoxyuridine (EDU) EDU signal marker for 2-4 hours to assess DNA synthesis and cell proliferation.
The fibroblasts were fixed in PFA for 10-15 minutes, then washed 2× in 4% BSA. 0.1% Triton X-100 in PBS was added for 20 min at 23° C. to permeabilize the cells. The cells were washed 2× in 4% BSA and the following reaction mixture was added: 0.25% of 488 iFlour azide, 4% CuSO, 10% Sodium Ascorbate in PBS. The cells were incubated at 23° C. for 30 minutes. The cells were washed in BSA 1× and in PBS 1×. The cells were also stained for DAPI for 30 minutes at 23° C. The cells were washed 2× in PBS and maintained in PBS.
Plates were imaged using the Celigo Imaging Cytometer by Nexcelcom. The amount of fluorescent expression of EDU and DAPI were quantified to determine the amount of EDU/field (and thus the percentage of fibroblast cells dividing).
Because the concentration required to induce an effect with each peptide was not known, each peptide was tested in 3 concentrations: 10 ng/ml, 100 ng/ml, and 1000 ng/ml as shown in Table 4A and Table 4B.

[1] = test system: Acinetobacter baumannii ATCC 196062; assay: Diffusion agar plate method, zone of inhibition; format: cell-based; conditions: 62.5 μg/ml to 1000 μg/ml; FIG. 5, FIG. 10
Description: (§1) Cell culture: Cultures of each bacterial strain were prepared by inoculating on Muller Hinton Agar (MHA) medium. After overnight incubation at 37° C., the density of the bacterial cells was compared to the McFarland turbidity standard (0.5).
(§2) Plates were swabbed with McFarland 0.5 inoculum of each test bacteria. […] serial dilutions of the peptides were prepared and 20 μl of compound were dropped onto the MHA. Antibiotic disc served as a positive control and vehicle alone served as the negative control. Plates were incubated for 16-18 hours and assessed for antibacterial activity. Zones of inhibition were measured for each TA dilution and compared with the controls.

[2] = test system: Streptococcus pneumoniae DCC1335; assay: Diffusion agar plate method, zone of inhibition; format: cell-based; conditions: 62.5 μg/ml to 1000 μg/ml; FIG. 10
Description: as §1, §2

[3] = test system: interleukin-8 (IL-8) production in human fibroblasts; assay: Fibroblast inflammation assay (LPS-induced IL-8, ELISA); format: cell-based; conditions: LPS induction
Description: Inflammation in fibroblasts leads to the production of the chemokine interleukin-8 (IL-8), which stimulates fibroblast to myofibroblast transition (MFT) thereby enhancing scar formation. To determine if the peptides of the instant disclosure affect fibroblast response to inflammation and fibroblast IL-8 production, the following assays were performed.
Human fibroblasts were grown as described above. HNDFs were plated in 96 well plates at a concentration of 1×10^4 cells/well and allowed to incubate overnight. The next day cells were dosed with 5 μg/mL of LPS with and without the peptides. The negative control contained only media and vehicle, while the positive control was dosed with lipopolysaccharides (LPS) and dexamethasone (50 μg/ml). After 24 hours, the media was removed to measure IL6 and IL8 cytokine levels using ELISA. A standard curve was plotted in excel. All data were blank subtracted and then fit onto the curve to calculate cytokine concentrations.

[4] = test system: Normal human dermal fibroblasts (HNDF); assay: Myofibroblast transition assay (MFT), aSMA immunofluorescence; format: cell-based; conditions: N = 3; for Myofibroblast transition (MFT), aSMA/cell, % change relative to control: TGF-Beta induced HNDF, control of no peptide
Excerpt: The myofibroblast transition (MFT) assay determines the effect of the peptide on inhibiting the transition of fibroblasts to myofibroblasts. The extracellular matrix produced by myofibroblasts may be produced in excess and may not be remodeled during tissue healing, leaving behind the fibrous connective tissue that forms a scar. Thus, the ability to regulate the degree of MFT may enable control of scarring. To determine if the peptides provided herein affect MFT, the following assay was performed.
Normal human dermal fibroblasts (HNDF) were cultured in high glucose Dulbecco's modified eagle medium (DMEM) supplemented with 10% fetal bovine serum (FBS) and 5 ml of 10,000 units of penicillin/streptomycin. Cells were cultured on 10 cm plates with media changes every 2 days. Cells were passaged in 0.25% Trypsin/EDTA after achieving 80% confluency.
To induce myofibroblast transition (MFT), normal human dermal fibroblasts (HNDFs) were split from 1-10 cm plates to 5-96 well plates. Cells were then allowed to grow the next day. The following day, cells were serum starved (1% FBS in DMEM) for 4 hours prior to adding 20 ng/ml of TGF-Beta to all wells of the plate. 1000 μM of Vactosertib (TEW-7197/EW-7197) was added to serve as a positive control and different concentrations of peptides were added to serve as the test articles. The cells were then exposed to the compounds for 5 more days before fixation.
The cells were fixed in paraformaldehyde (PFA) for 10-15 minutes, then washed 2× in PBS. Cells were blocked in 4% BSA for 30 minutes at 23° C. Cells were stained with the primary alpha-smooth muscle actin (aSMA) antibody (1:100) for 1 hour at 23° C. or left out at 4° C. overnight. Cells were rinsed 2× with BSA and then the secondary antibody mix was added: Alexa 488 (1:500) and DAPI (1:1000) for 30 min at 23° C. or 1 hr at 4° C. The plates were covered during staining, then rinsed 2× in BSA and stored in PBS.
Plates were imaged using the Celigo Imaging Cytometer by Nexcelcom. The ratio of fluorescent expression of alpha-smooth muscle actin (aSMA) and DAPI were quantified to determine the amount of aSMA/cell.
The change (normalized to the control) in MFT for each concentration is shown along with the p value for all experiments relative to the control of no peptide.

With AATHEFGHSLGLSH [MBm1] the “Fibroblast proliferation (% change relative to control)” value (HNDF fibroblasts; 100 ng/ml peptide) was 0.2919% and the “Fibroblast proliferation, Representative value from experiments (% change relative to control)” value (HNDF fibroblasts) was 0.2919 (p = 0.044) %.
With ERDLK [MBb14] the “Fibroblast proliferation (% change relative to control)” value (HNDF fibroblasts; 10 ng/ml peptide) was 1.094% and the “Fibroblast proliferation, Representative value from experiments (% change relative to control)” value (HNDF fibroblasts) was 1.094 p = (0.029) %.
In the case of FEDVIAEP [MBa5], the “Fibroblast proliferation (% change relative to control)” value (HNDF fibroblasts; 10 ng/ml peptide) is reported as 0.5133% and the “Fibroblast proliferation, Representative value from experiments (% change relative to control)” value (HNDF fibroblasts) is reported as 0.5133 (p = 0.004) %.
For “GFWDIL WHIPHTIKG (GFWDILWHIPHTIKG) [MBdol15]”, the “agar zone of inhibition, inhibiting bacterial growth” value [1] was “effective” and the “agar zone of inhibition, inhibiting bacterial growth” value [2] was “effective”.
For GYRCSKG [MBa7], the “Fibroblast proliferation (% change relative to control)” value (HNDF fibroblasts; 10 ng/ml peptide) was 0.3483%, the “Fibroblast proliferation (% change relative to control)” value (HNDF fibroblasts; 1000 ng/ml peptide) was 0.4644% and the “Fibroblast proliferation, Representative value from experiments (% change relative to control)” value (HNDF fibroblasts) was 0.4644 p = (0.01) %.
For IDFEDVIAEP [MBa4], the “Fibroblast proliferation (% change relative to control)” value (HNDF fibroblasts; 1000 ng/ml peptide) was 0.8384% and the “Fibroblast proliferation, Representative value from experiments (% change relative to control)” value (HNDF fibroblasts) was 0.8384 p = (0.037) %.
With PKPQP [MBb28] the “effect on IL-8 inhibition in fibroblasts relative to the negative control” value [3] was “low but significant effect”, the “Myofibroblast transition (MFT), aSMA/cell, % change relative to control” value ([4]; 100 ng/ml peptide) was −0.243% and the “Myofibroblast transition (MFT), aSMA/cell, % change relative to control” value ([4]; 1000 ng/ml peptide) was −0.1881%. For the same substance, the “MFT, Representative value from experiments (% change relative to control)” value ([4]; most effective significant concentration of 10, 100, 1000 ng/ml) was −0.243 p = (0.006) %.
